This note sets out measurements from ChEMBL document CHEMBL5579809, “Exploration of bromodomain ligand-linker conjugation sites for efficient CBP/p300 heterobifunctional degrader activity” (Bioorg Med Chem Lett, 2024).

Active and inactive are the calls of the source. No cut-off for these calls is given here.

T2 sequence (Q09472 2-2414 limits assumed): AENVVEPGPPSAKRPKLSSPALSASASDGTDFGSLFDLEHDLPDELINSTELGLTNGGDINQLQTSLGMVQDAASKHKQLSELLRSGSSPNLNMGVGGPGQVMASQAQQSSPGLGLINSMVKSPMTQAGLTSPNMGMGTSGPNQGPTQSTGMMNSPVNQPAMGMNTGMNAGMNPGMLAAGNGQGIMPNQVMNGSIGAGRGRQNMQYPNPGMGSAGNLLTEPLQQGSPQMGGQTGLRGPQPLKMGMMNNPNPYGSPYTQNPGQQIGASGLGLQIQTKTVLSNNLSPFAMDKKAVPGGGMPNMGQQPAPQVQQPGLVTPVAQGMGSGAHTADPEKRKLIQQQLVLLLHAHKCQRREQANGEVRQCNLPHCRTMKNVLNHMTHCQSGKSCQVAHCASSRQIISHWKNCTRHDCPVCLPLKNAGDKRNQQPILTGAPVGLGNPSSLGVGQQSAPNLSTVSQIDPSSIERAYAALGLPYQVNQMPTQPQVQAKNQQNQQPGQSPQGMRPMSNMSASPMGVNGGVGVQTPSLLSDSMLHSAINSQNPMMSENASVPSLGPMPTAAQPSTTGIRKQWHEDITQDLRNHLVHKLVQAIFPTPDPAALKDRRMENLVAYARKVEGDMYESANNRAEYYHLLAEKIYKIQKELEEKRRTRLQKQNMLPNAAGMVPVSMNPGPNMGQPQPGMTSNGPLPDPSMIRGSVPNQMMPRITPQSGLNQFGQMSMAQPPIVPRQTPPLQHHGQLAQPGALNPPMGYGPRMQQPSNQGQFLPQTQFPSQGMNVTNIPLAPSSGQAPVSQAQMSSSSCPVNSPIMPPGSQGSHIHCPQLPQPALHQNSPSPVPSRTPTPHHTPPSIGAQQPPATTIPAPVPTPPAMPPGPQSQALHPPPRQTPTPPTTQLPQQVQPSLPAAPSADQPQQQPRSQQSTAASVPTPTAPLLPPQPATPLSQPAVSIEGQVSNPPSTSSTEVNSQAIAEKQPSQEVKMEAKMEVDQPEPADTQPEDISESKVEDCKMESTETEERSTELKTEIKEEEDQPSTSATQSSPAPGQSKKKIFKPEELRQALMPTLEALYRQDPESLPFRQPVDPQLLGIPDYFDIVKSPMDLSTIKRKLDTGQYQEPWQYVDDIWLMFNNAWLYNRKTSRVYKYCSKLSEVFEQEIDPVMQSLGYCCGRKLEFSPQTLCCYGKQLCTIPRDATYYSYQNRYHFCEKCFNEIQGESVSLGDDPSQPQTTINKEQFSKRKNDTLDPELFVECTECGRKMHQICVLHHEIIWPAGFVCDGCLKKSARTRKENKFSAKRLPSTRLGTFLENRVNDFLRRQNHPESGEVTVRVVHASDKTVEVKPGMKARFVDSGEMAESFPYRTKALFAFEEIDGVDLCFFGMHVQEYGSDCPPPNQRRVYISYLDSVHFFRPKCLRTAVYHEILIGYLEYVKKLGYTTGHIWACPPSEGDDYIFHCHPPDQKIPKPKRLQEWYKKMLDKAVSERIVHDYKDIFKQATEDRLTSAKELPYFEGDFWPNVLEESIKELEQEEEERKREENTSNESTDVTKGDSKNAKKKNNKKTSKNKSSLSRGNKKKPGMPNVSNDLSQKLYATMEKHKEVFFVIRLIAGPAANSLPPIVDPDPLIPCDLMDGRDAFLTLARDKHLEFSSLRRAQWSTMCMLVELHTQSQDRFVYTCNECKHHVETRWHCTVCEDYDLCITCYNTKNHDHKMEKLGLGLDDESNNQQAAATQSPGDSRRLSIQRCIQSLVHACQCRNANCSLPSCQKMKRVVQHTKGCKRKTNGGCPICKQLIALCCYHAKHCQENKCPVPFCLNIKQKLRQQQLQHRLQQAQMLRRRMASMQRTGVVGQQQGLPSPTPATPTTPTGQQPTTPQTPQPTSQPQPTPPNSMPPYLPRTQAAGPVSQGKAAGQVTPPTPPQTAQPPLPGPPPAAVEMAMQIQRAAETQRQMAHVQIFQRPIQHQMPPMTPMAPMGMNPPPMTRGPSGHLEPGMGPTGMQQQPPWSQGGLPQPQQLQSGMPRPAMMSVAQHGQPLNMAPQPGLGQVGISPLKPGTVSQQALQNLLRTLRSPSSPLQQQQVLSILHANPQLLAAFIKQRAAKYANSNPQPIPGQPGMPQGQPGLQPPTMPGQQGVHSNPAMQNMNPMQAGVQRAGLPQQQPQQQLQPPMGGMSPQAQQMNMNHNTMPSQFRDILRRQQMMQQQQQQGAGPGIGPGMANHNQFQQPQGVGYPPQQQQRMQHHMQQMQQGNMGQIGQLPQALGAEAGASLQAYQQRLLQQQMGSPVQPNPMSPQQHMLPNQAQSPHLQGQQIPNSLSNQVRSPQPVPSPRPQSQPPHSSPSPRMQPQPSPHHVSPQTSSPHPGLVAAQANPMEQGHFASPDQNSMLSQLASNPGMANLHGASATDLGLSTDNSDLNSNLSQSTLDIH
T2 sequence (Q96SW2 whole entry partner): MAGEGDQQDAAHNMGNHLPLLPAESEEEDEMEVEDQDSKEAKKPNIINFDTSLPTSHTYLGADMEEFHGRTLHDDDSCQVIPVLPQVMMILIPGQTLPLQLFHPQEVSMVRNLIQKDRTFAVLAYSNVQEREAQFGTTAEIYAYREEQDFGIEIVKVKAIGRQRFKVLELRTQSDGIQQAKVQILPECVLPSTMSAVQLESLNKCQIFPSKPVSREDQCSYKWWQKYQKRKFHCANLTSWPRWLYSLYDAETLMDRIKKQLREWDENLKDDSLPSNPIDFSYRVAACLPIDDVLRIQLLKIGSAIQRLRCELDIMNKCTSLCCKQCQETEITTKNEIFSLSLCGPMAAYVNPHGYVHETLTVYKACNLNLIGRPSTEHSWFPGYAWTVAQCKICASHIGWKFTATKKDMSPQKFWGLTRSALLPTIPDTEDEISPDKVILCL

For one experiment, the target named is T1, Protein cereblon/CREB-binding protein (Homo sapiens) (UniProt Q92793+Q96SW2). Briefly: PROTAC activity at CRBN/HiBiT-tagged CBP in human HAP1 cells assessed as total cumulative degradation by measuring AUC at 100 nM measured over 24 hrs by luminescence based analysis.
Conditions: not given
In kind it is cell-based. For orientation: The HiBiT peptide binds its large partner to form an active luciferase.
`CNC(=O)N1CCc2c(c(N3CCN(C(=O)NCCOCCOCCOCCOCCNc4ccc5c(c4)C(=O)N(C4CCC(=O)NC4=O)C5=O)c4cc(-c5cnn(C)c5)c(C(F)(F)F)cc43)nn2C2CCOCC2)C1` (configuration not stated): the AUC stood at 24.6.

The target of a further experiment is T1, Protein cereblon/CREB-binding protein (Homo sapiens). Briefly: PROTAC activity at CRBN/HiBiT-tagged CBP in human HAP1 cells assessed as total cumulative degradation by measuring AUC at 1 nM measured over 24 hrs by luminescence based analysis. The experiment is classed as cell-based.
Conditions: not given
On to `CNC(=O)N1CCc2c(c(N3CCN(C(=O)NCCOCCOCCOCCOCCNc4ccc5c(c4)C(=O)N(C4CCC(=O)NC4=O)C5=O)c4cc(-c5cnn(C)c5)c(C(F)(F)F)cc43)nn2C2CCOCC2)C1` (configuration not stated), for which the AUC worked out at 24.7.

A further experiment has the same target. Briefly: PROTAC activity at CRBN/HiBiT-tagged CBP in human HAP1 cells assessed as total cumulative degradation by measuring AUC at 0.01 nM measured over 24 hrs by luminescence based analysis.
Conditions: not given
The experiment is classed as cell-based.
As for `CNC(=O)N1CCc2c(c(N3CCN(C(=O)NCCOCCOCCOCCOCCNc4ccc5c(c4)C(=O)N(C4CCC(=O)NC4=O)C5=O)c4cc(-c5cnn(C)c5)c(C(F)(F)F)cc43)nn2C2CCOCC2)C1` (configuration not stated), the AUC worked out at 24.1.

The next experiment addresses T2, Protein cereblon/Histone acetyltransferase p300 (Homo sapiens) (UniProt Q09472+Q96SW2). In words: PROTAC activity at CRBN/HiBiT-tagged p300 in human HAP1 cells assessed as total cumulative degradation by measuring AUC at 0.01 nM measured over 24 hrs by luminescence based analysis. The experiment is classed as cell-based.
Conditions: not given
As to `CNC(=O)N1CCc2c(c(N3CCN(C(=O)NCCOCCOCCOCCOCCNc4ccc5c(c4)C(=O)N(C4CCC(=O)NC4=O)C5=O)c4cc(-c5cnn(C)c5)c(C(F)(F)F)cc43)nn2C2CCOCC2)C1` (configuration not stated), the AUC was 27.2.

For the next experiment, the target named is T2, Protein cereblon/Histone acetyltransferase p300 (Homo sapiens). Briefly: PROTAC activity at CRBN/HiBiT-tagged p300 in human HAP1 cells assessed as induction of p300 degradation by measuring maximal efficacy at 1000 nM measured over 24 hrs by luminescence based analysis relative to control. In kind it is cell-based.
Conditions: not given
Consider `CNC(=O)N1CCc2c(c(N3CCN(C(=O)NCCOCCOCCOCCOCCNc4ccc5c(c4)C(=O)N(C4CCC(=O)NC4=O)C5=O)c4cc(-c5cnn(C)c5)c(C(F)(F)F)cc43)nn2C2CCOCC2)C1` (configuration not stated), for which the Emax (commonly the maximal effect, on the per cent scale that the assay sets) was determined as 26%.

For a further experiment, the target named is T1, Protein cereblon/CREB-binding protein (Homo sapiens). Briefly: PROTAC activity at CRBN/HiBiT-tagged CBP in human HAP1 cells assessed as total cumulative degradation by measuring AUC at 1000 nM measured over 24 hrs by luminescence based analysis. In kind it is cell-based.
Conditions: not given
With `CNC(=O)N1CCc2c(c(N3CCN(C(=O)NCCOCCOCCOCCOCCNc4ccc5c(c4)C(=O)N(C4CCC(=O)NC4=O)C5=O)c4cc(-c5cnn(C)c5)c(C(F)(F)F)cc43)nn2C2CCOCC2)C1` (configuration not stated), the AUC is 24.2.

Another experiment concerns the target T2, Protein cereblon/Histone acetyltransferase p300 (Homo sapiens). In words: PROTAC activity at CRBN/HiBiT-tagged p300 in human HAP1 cells assessed as total cumulative degradation by measuring AUC at 100 nM measured over 24 hrs by luminescence based analysis.
Conditions: not given
In kind it is cell-based.
With `CNC(=O)N1CCc2c(c(N3CCN(C(=O)NCCOCCOCCOCCOCCNc4ccc5c(c4)C(=O)N(C4CCC(=O)NC4=O)C5=O)c4cc(-c5cnn(C)c5)c(C(F)(F)F)cc43)nn2C2CCOCC2)C1` (configuration not stated), the AUC is 25.5.

For another experiment the target is unchanged. Briefly: PROTAC activity at CRBN/HiBiT-tagged p300 in human HAP1 cells assessed as total cumulative degradation by measuring AUC at 1000 nM measured over 24 hrs by luminescence based analysis. In kind it is cell-based.
Conditions: not given
`CNC(=O)N1CCc2c(c(N3CCN(C(=O)NCCOCCOCCOCCOCCNc4ccc5c(c4)C(=O)N(C4CCC(=O)NC4=O)C5=O)c4cc(-c5cnn(C)c5)c(C(F)(F)F)cc43)nn2C2CCOCC2)C1` (configuration not stated): the AUC was found to be 22.1.

The next experiment has the same target. Briefly: PROTAC activity at CRBN/HiBiT-tagged p300 in human HAP1 cells assessed as total cumulative degradation by measuring AUC at 0.1 nM measured over 24 hrs by luminescence based analysis. The experiment is classed as cell-based.
Conditions: not given
With `CNC(=O)N1CCc2c(c(N3CCN(C(=O)NCCOCCOCCOCCOCCNc4ccc5c(c4)C(=O)N(C4CCC(=O)NC4=O)C5=O)c4cc(-c5cnn(C)c5)c(C(F)(F)F)cc43)nn2C2CCOCC2)C1` (configuration not stated), the AUC stood at 27.3.

For a further experiment, the target named is T1, Protein cereblon/CREB-binding protein (Homo sapiens). Briefly: PROTAC activity at CRBN/HiBiT-tagged CBP in human HAP1 cells assessed as total cumulative degradation by measuring AUC at 0.1 nM measured over 24 hrs by luminescence based analysis. The experiment is classed as cell-based.
Conditions: not given
On to `CNC(=O)N1CCc2c(c(N3CCN(C(=O)NCCOCCOCCOCCOCCNc4ccc5c(c4)C(=O)N(C4CCC(=O)NC4=O)C5=O)c4cc(-c5cnn(C)c5)c(C(F)(F)F)cc43)nn2C2CCOCC2)C1` (configuration not stated), for which the AUC came out at 24.4.

In the next experiment the target is T2, Protein cereblon/Histone acetyltransferase p300 (Homo sapiens). Briefly: PROTAC activity at CRBN/HiBiT-tagged p300 in human HAP1 cells assessed as total cumulative degradation by measuring AUC at 10 nM measured over 24 hrs by luminescence based analysis. The experiment is classed as cell-based.
Conditions: not given
As to `CNC(=O)N1CCc2c(c(N3CCN(C(=O)NCCOCCOCCOCCOCCNc4ccc5c(c4)C(=O)N(C4CCC(=O)NC4=O)C5=O)c4cc(-c5cnn(C)c5)c(C(F)(F)F)cc43)nn2C2CCOCC2)C1` (configuration not stated), the AUC was 26.9.

The target is the same in the next experiment. In words: PROTAC activity at CRBN/HiBiT-tagged p300 in human HAP1 cells assessed as induction of p300 degradation by measuring degradation rate at 1000 nM measured over 24 hrs by luminescence based analysis.
Conditions: not given
In kind it is cell-based.
Consider `CNC(=O)N1CCc2c(c(N3CCN(C(=O)NCCOCCOCCOCCOCCNc4ccc5c(c4)C(=O)N(C4CCC(=O)NC4=O)C5=O)c4cc(-c5cnn(C)c5)c(C(F)(F)F)cc43)nn2C2CCOCC2)C1` (configuration not stated), for which the Activity was found to be 0.009 h⁻¹.

The target in another experiment is T1, Protein cereblon/CREB-binding protein (Homo sapiens). In words: Binding affinity to recombinant CRBN/CBP bromodomain (unknown origin) assessed as ternary complex formation at 10 to 100 nM by Alphascreen-based proximity assay. The experiment is classed as protein assay. The settings on record: dose 10-100 nM. For orientation: Alpha assays give light when donor and acceptor beads are brought close together.
For `CNC(=O)N1CCc2c(c(N3CCN(C(=O)NCCOCCOCCOCCOCCNc4ccc5c(c4)C(=O)N(C4CCC(=O)NC4=O)C5=O)c4cc(-c5cnn(C)c5)c(C(F)(F)F)cc43)nn2C2CCOCC2)C1` (configuration not stated), the outcome was Active.

For another experiment, the target named is Protein cereblon/Bromodomain-containing protein 4 (Homo sapiens) (UniProt O60885+Q96SW2). Briefly: PROTAC activity at CRBN/HiBiT-tagged BRD4 in human HAP1 cells assessed as induction of BRD4 degradation measured over 24 hrs by luminescence based analysis.
Protein cereblon/Bromodomain-containing protein 4 (Homo sapiens), sequence (Q96SW2 whole entry, looked up, other chains not shown): as the sequence (Q96SW2 whole entry partner) above
Conditions: not given
The experiment is classed as cell-based.
On to `CNC(=O)N1CCc2c(c(N3CCN(C(=O)NCCOCCOCCOCCOCCNc4ccc5c(c4)C(=O)N(C4CCC(=O)NC4=O)C5=O)c4cc(-c5cnn(C)c5)c(C(F)(F)F)cc43)nn2C2CCOCC2)C1` (configuration not stated), for which the outcome was inactive.

For a further experiment, the target named is T1, Protein cereblon/CREB-binding protein (Homo sapiens). Briefly: PROTAC activity at CRBN/HiBiT-tagged CBP in human HAP1 cells assessed as total cumulative degradation by measuring AUC at 10 nM measured over 24 hrs by luminescence based analysis. The experiment is classed as cell-based.
Conditions: not given
`CNC(=O)N1CCc2c(c(N3CCN(C(=O)NCCOCCOCCOCCOCCNc4ccc5c(c4)C(=O)N(C4CCC(=O)NC4=O)C5=O)c4cc(-c5cnn(C)c5)c(C(F)(F)F)cc43)nn2C2CCOCC2)C1` (configuration not stated): the AUC amounted to 25.1.

A further experiment has as its target T2, Protein cereblon/Histone acetyltransferase p300 (Homo sapiens). In words: Binding affinity to recombinant CRBN/p300 bromodomain (unknown origin) assessed as ternary complex formation at 10 to 100 nM by Alphascreen-based proximity assay. The following applies: dose 10-100 nM. In kind it is protein assay.
Take `CNC(=O)N1CCc2c(c(N3CCN(C(=O)NCCOCCOCCOCCOCCNc4ccc5c(c4)C(=O)N(C4CCC(=O)NC4=O)C5=O)c4cc(-c5cnn(C)c5)c(C(F)(F)F)cc43)nn2C2CCOCC2)C1` (configuration not stated): the outcome was Active.

The target is the same in the next experiment. In words: PROTAC activity at CRBN/HiBiT-tagged p300 in human HAP1 cells assessed as total cumulative degradation by measuring AUC at 1 nM measured over 24 hrs by luminescence based analysis. The experiment is classed as cell-based.
Conditions: not given
With `CNC(=O)N1CCc2c(c(N3CCN(C(=O)NCCOCCOCCOCCOCCNc4ccc5c(c4)C(=O)N(C4CCC(=O)NC4=O)C5=O)c4cc(-c5cnn(C)c5)c(C(F)(F)F)cc43)nn2C2CCOCC2)C1` (configuration not stated), the AUC is 27.7.
